Data reported in article PMC9868654, “Discovery of a potent olaparib–chlorambucil hybrid inhibitor of PARP1 for the treatment of cancer” (Frontiers in Pharmacology, 2023).

Key:
Capan-1 cells = assay: In vitro antiproliferative assay (CCK-8); assay type: cell-based; details: Homo sapiens; Capan-1, BRCA-mutated; CCK-8, 72 h; mean of three
Description: (§1) The proliferation of cancer cells was tested by CCK-8 assay. Briefly, cells were seeded in 96-well plates at approximately 5 × 10^3 cells per well. The cells were treated with test compounds after 24 h of incubation. CCK-8 reagent ([…]) was added to each well after 72 h of incubation, and the cells were then incubated at 37°C for 4 h. The light absorbance at 450 nm was measured using an Opsys microplate reader (Dynex Technologies, Chantilly, VA, United States). Results are illustrated as percentage viability normalized to DMSO-treated control cells.

8226 cells = assay: In vitro antiproliferative assay (CCK-8); assay type: cell-based; details: 8226, without BRCA mutations; CCK-8, 72 h; mean of three
Description: as §1

MCF-7 cells = assay: In vitro antiproliferative assay (CCK-8); assay type: cell-based; details: Homo sapiens, MCF7; MCF-7, without BRCA mutations; CCK-8, 72 h; mean of three
Description: as §1

CH151 cells = assay: In vitro antiproliferative assay (CCK-8); assay type: cell-based; details: CH151, without BRCA mutations; CCK-8, 72 h; mean of three
Description: as §1

U251 cells = assay: In vitro antiproliferative assay (CCK-8); assay type: cell-based; details: Homo sapiens, U-251; U251, without BRCA mutations; CCK-8, 72 h; mean of three
Description: as §1

U87 cells = assay: In vitro antiproliferative assay (CCK-8); assay type: cell-based; details: Homo sapiens, U-87 MG; U87, without BRCA mutations; CCK-8, 72 h; mean of three
Description: as §1

MDA-MB-436 cells = assay: In vitro antiproliferative assay (CCK-8); assay type: cell-based; details: Homo sapiens; MDA-MB-436, BRCA-mutated; CCK-8, 72 h; mean of three
Description: as §1

K562 cells [1] = assay: In vitro antiproliferative assay (CCK-8); assay type: cell-based; details: Homo sapiens; K562, without BRCA mutations; CCK-8, 72 h; mean of three
Description: as §1

B16 cells = assay: In vitro antiproliferative assay (CCK-8); assay type: cell-based; details: Mus musculus; B16, without BRCA mutations; CCK-8, 72 h; mean of three
Description: as §1

A549 cells = assay: In vitro antiproliferative assay (CCK-8); assay type: cell-based; details: Homo sapiens; A549, without BRCA mutations; CCK-8, 72 h; mean of three
Description: as §1

Hela cells = assay: In vitro antiproliferative assay (CCK-8); assay type: cell-based; details: Homo sapiens, without BRCA mutations, CCK-8, 72 h, mean of three
Description: as §1

SKOV3 cells = assay: In vitro antiproliferative assay (CCK-8); assay type: cell-based; details: Homo sapiens, SK-OV-3; SKOV3, without BRCA mutations; CCK-8, 72 h; mean of three
Description: as §1

SW620 cells = assay: In vitro antiproliferative assay (CCK-8); assay type: cell-based; details: Homo sapiens, SW-620; SW620, without BRCA mutations; CCK-8, 72 h; mean of three
Description: as §1

HCC1937 cells = assay: In vitro antiproliferative assay (CCK-8); assay type: cell-based; details: Homo sapiens; HCC1937, BRCA-mutated; CCK-8, 72 h; mean of three
Description: as §1

Raji cells = assay: In vitro antiproliferative assay (CCK-8); assay type: cell-based; details: Homo sapiens, without BRCA mutations, CCK-8, 72 h, mean of three
Description: as §1

MDA-MB-231 cells = assay: In vitro antiproliferative assay (CCK-8); assay type: cell-based; details: Homo sapiens; MDA-MB-231, without BRCA mutations; CCK-8, 72 h; mean of three
Description: as §1

PARP1 = PARP1 (Homo sapiens, UniProt P09874); assay: PARP1 enzyme inhibitory assay; assay type: biochemical; details: Table 2, B and C series; mean of three experiments
PARP1, sequence (P09874 whole entry): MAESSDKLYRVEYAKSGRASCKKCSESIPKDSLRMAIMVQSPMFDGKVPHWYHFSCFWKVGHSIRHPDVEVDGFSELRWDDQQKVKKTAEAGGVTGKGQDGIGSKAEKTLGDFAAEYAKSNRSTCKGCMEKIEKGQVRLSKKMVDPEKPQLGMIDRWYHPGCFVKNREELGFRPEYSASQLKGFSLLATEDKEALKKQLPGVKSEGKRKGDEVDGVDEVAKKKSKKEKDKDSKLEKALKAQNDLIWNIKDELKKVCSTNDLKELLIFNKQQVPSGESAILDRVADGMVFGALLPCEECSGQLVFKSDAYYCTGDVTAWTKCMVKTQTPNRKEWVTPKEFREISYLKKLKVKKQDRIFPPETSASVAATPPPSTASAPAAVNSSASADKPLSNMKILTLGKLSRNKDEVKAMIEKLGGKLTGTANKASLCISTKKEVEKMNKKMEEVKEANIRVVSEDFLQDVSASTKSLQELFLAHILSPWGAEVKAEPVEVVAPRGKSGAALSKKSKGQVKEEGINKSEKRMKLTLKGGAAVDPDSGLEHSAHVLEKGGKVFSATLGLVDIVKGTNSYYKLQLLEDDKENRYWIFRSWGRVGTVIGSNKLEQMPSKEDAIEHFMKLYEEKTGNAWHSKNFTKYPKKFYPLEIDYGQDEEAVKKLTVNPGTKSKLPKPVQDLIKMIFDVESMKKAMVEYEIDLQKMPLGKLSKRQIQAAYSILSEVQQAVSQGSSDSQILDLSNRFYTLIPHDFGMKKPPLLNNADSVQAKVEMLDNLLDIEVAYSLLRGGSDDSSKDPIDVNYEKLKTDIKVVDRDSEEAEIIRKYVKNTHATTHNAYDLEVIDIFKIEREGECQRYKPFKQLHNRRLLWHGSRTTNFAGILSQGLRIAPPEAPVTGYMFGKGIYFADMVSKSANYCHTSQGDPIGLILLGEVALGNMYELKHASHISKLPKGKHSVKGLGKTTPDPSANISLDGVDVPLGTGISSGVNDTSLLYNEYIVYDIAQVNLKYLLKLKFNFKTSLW

K562 cells [2] = assay: Cell cycle analysis (PI staining, flow cytometry); assay type: cell-based; details: for effect on cell cycle (in words): K562, 24 h, C2 1.25–5.0 µM, olaparib and chlorambucil 2.5–10 µM
Description: K562 and HCC1937 cells were incubated with different doses of molecule C2, olaparib, or chlorambucil for 24 h. After treatment, cells were collected and fixed with 70% pre-chilled ethanol in PBS and stored at −20°C overnight. The cells were then washed twice with PBS, incubated with 100 μg/ml RNase I (Solarbio, China) at 37°C for 1 h, and stained with propidium iodide (PI, 10 μg/ml, Solarbio, China) for 30 min, in the dark, at room temperature. Finally, the DNA content was measured using flow cytometry (FACSAria III, Becton Dickinson, United States). The data were analyzed and fitted using ModFit software.

K562 cells [3] = assay: Cell apoptosis analysis (Annexin V-BV421/7-AAD, flow cytometry); assay type: cell-based; details: 24 h, control .90%
Description: K562 cells were treated with various concentrations of molecule C2, olaparib, or chlorambucil for 24 h. Cells were then harvested and washed twice with PBS and then resuspended with binding buffer (Becton Dickinson, United States). Cells were incubated with Annexin V-BV421 (Becton Dickinson, United States) and 7-AAD (Becton Dickinson, United States) for double labeling for 30 min, in the dark, at room temperature, followed by analysis using flow cytometry (FACSAria III, Becton Dickinson, United States). The data were analyzed using FlowJo v10 software.

[4] = design: method as in Jackson and Chester, 2015; details: ref Jackson and Chester, 2015; cited from earlier work
[5] = design: method as in Gala et al., 2020; details: in both aqueous and lipophilic solutions; ref Gala et al., 2020; cited from earlier work

**Q.** Which results are given for `O=C(CCCc1ccc(N(CCCl)CCCl)cc1)N1CCN(C(=O)c2cc(Cc3n[nH]c(=O)c4ccccc34)ccc2F)CC1` [C2, 4-(3-(4-(4-(4-(Bis(2-chloroethyl)amino)phenyl)butanoyl)piperazine-1-carbonyl)-4-fluorobenzyl)phthalazin-1(2H)-one]?
**A.** IC50 (Capan-1 cells): 0.086 ± 0.006 µM; IC50 (8226 cells): 3.62 ± 0.2 µM; IC50 (MCF-7 cells): 2.28 ± 0.11 µM; IC50 (CH151 cells): 2.77 ± 0.13 µM; IC50 (U251 cells): 2.58 ± 0.14 µM; IC50 (U87 cells): 2.86 ± 0.01 µM; IC50 (MDA-MB-436 cells): 0.013 ± 0.001 µM; IC50 (K562 cells [1]): 1.12 ± 0.08 µM; IC50 (B16 cells): 11.7 ± 1.01 µM; IC50 (A549 cells): 2.01 ± 0.13 µM; IC50 (Hela cells): 1.65 ± 0.11 µM; IC50 (SKOV3 cells): 4.04 ± 0.25 µM; IC50 (SW620 cells): 6.41 ± 0.46 µM; IC50 (HCC1937 cells): 0.18 ± 0.01 µM; IC50 (Raji cells): 1.21 ± 0.02 µM; IC50 (MDA-MB-231 cells): 6.33 ± 0.35 µM; IC50 (PARP1): 0.0009 ± 8e-05 µM; effect on cell cycle (in words) (K562 cells [2]): increased cell number at the G2/M phase in a dose-dependent manner; percentage of apoptotic cells (apoptotic rate) (K562 cells [3]; K562, 1 μM): 10.96%; percentage of apoptotic cells (apoptotic rate) (K562 cells [3]; K562, 2 µM): 12.69%

**Q.** What does the source list for `O=C(O)CCCc1ccc(N(CCCl)CCCl)cc1` [Chlorambucil]?
**A.** IC50 (Capan-1 cells): > 1 µM; IC50 (8226 cells): > 100 µM; IC50 (MCF-7 cells): 19.5 ± 1.7 µM; IC50 (CH151 cells): > 100 µM; IC50 (U251 cells): 21.1 ± 1.8 µM; IC50 (U87 cells): > 100 µM; IC50 (MDA-MB-436 cells): > 1 µM; IC50 (K562 cells [1]): > 20 µM; IC50 (B16 cells): > 100 µM; IC50 (A549 cells): 89.4 ± 3.4 µM; IC50 (Hela cells): > 100 µM; IC50 (SKOV3 cells): 3.98 ± 0.22 µM; IC50 (SW620 cells): 10 ± 1.01 µM; IC50 (HCC1937 cells): > 1 µM; IC50 (Raji cells): 40.6 ± 3.6 µM; IC50 (MDA-MB-231 cells): 95.3 ± 5.7 µM; proportion of cells in the G2/M phase (K562 cells [2]; K562, 10 µM, 24 h): 61.60%; effect on cell cycle (in words) (K562 cells [2]): increased cell number at the G2/M phase in a dose-dependent manner; percentage of apoptotic cells (apoptotic rate) (K562 cells [3]; K562, 5 μM): 2.49%; percentage of apoptotic cells (apoptotic rate) (K562 cells [3]; K562, 10 µM): 2.96%

**Q.** Which IC50 (Capan-1 cells) does the source give for `O=C(c1cc(Cc2n[nH]c(=O)c3ccccc23)ccc1F)N1CCN(C(=O)C2CC2)CC1` [Olaparib] here?
**A.** 0.129 ± 0.011 µM

**Q.** What about the IC50 (8226 cells) of the same compound?
**A.** 66.8 ± 5.5 µM

**Q.** What about the IC50 (MCF-7 cells) of the same compound?
**A.** 30.6 ± 2.1 µM

**Q.** What about the IC50 (CH151 cells) of the same compound?
**A.** 24.9 ± 1.5 µM

**Q.** And the IC50 (U251 cells)?
**A.** > 100 µM

**Q.** What about the IC50 (U87 cells) of the same compound?
**A.** 26 ± 1.2 µM

**Q.** What about the IC50 (MDA-MB-436 cells) of the same compound?
**A.** 0.047 ± 0.003 µM

**Q.** What about the IC50 (K562 cells [1]) of the same compound?
**A.** 10.4 ± 0.72 µM

**Q.** And the IC50 (B16 cells)?
**A.** > 100 µM

**Q.** What about the IC50 (A549 cells) of the same compound?
**A.** 1.62 ± 0.11 µM

**Q.** What about the IC50 (Hela cells) of the same compound?
**A.** 11.6 ± 1.01 µM

**Q.** What about the IC50 (SKOV3 cells) of the same compound?
**A.** 12.8 ± 1.2 µM

**Q.** What about the IC50 (SW620 cells) of the same compound?
**A.** 17.7 ± 1.2 µM

**Q.** And the IC50 (HCC1937 cells)?
**A.** 0.24 ± 0.01 µM

**Q.** What about the IC50 (Raji cells) of the same compound?
**A.** 4.4 ± 0.33 µM

**Q.** And the IC50 (MDA-MB-231 cells)?
**A.** 53.8 ± 3.6 µM

**Q.** What about the “effect on cell cycle (in words)” value (K562 cells [2]) of the same compound?
**A.** did not exhibit any effects

**Q.** And the “pharmacokinetics profiles and bioavailability” value [4]?
**A.** relatively poor

**Q.** What about the solubility [5] of the same compound?
**A.** low solubility

**Q.** And the “percentage of apoptotic cells (apoptotic rate)” value (K562 cells [3]; K562, 5 μM)?
**A.** 1.53%

**Q.** What about the “percentage of apoptotic cells (apoptotic rate)” value (K562 cells [3]; K562, 10 µM) of the same compound?
**A.** 1.91%
